Read-outs that look alike come from different tables or passages of the source.
How the values were obtained:
[1] = test system: SE-specific IgM and IgG plaque forming cells (PFC); experiment: Plaque test (HPT) for SE-specific IgM and IgG plaque forming cells, immunostimulatory action; type: in vivo, mouse (inbred CBA strain); conditions: 2.0 mg/kg daily over 5 days; control 100%; p<0.001
Protocol: The testing of immunostimulatory effects was also conducted on the mouse (inbred CBA strain) by detection through the plaque test for detecting SE (sheep erythrocyte) -specific immunoglobulin M (IgM) and immunoglobulin G (IgG) PFC (plaque forming cells), and by the rosette test.
2.1 Plaque Test for the Detection of SE-Specific IgM and IgG Plaque Forming Cells (PFC)
To check the immunostimulatory effects, the humoral immune response effect of compounds of Formula I was also investigated in mice of the inbred CBA strain and determined by means of the haemolysis plaque test (HPT). This technique permits the PFC, which produce IgM and IgG antibodies, to be determined quantitatively and separately. The immunization with sheep erythrocytes (SE) was carried out on day 0, the substance was administered orally in a daily dose of 1×10^-5 moles/kg of body weight; on days -1 to +3 relative to the determination of the IgM PFC, or on days +1 to +5 relative to the determination of the IgG PFC.
It becomes clear that a daily treatment extending over 5 days with the compound of Example 1, produces a highly significant increase in the SE-specific IgM and IgG PFC in the CBA mouse.

[2] = test system: SE-specific IgM and IgG plaque forming cells (PFC); experiment: Immunorestorative efficacy: plaque test in cyclophosphamide (CY) damaged animals; type: in vivo, mouse (CBA inbred); conditions: for IgM PFC/10^6, CY + compound / IgG PFC/10^6 spleen cells, CY + compound: CY 150 mg/kg, oral 2 mg/kg
Protocol: The detection of immunorestorative effects after injury to the immune system was carried out also by the plaque test for detecting SE-specific IgM, and IgG PFC, and by the rosette test.
The determination of the immunorestorative activity of compounds of Formula I was conducted by first damaging the immune system of the experimental animals (CBA inbred mice) by chemotherapy with cyclophosphamide, carrageenan, iloprost, or by radiation. The test was carried the plaque test for detecting SE-specific IgM and IgG PFC, and the rosette test.
The examination of the immunorestorative effects of compounds of Example 1 was carried out by damaging the immune system of the experimental animals by cyclophosphamide (CY), and subsequent testing by sheep erythrocycle SE-specific plaque forming cells PFC.
The immune system of the animals was damaged by the injection of 150 mg/kg of body weight on day -1 before the immunization for both the test and the control groups. Immunization was carried out by the intraperitoneal injection of 4×10^8 SE in 0.2 ml of phosphate buffered saline (PBS) solution.
Each of the experimental animals of the test group received by oral administration 2 mg of the compound of Example 1 per kg of body weight on the days -2, -1, 0, +1 and +2. The SE-specific IgM and IgG PFC was detected by the plaque test.

Vaccinia Lister [3] = experiment: microbe, parasite or virus in culture; type: cell-based, vaccinia virus
Influenza A/WSN [4] = experiment: Grading replication test on chicken embryo cells, influenza; type: cell-based; conditions: Influenza A virus
Herpes simplex type 1 = experiment: microbe, parasite or virus in culture; type: cell-based, herpes simplex virus
[5] = test system: Vesicular Stomatitis Indiana; experiment: microbe, parasite or virus in culture; type: cell-based, vesicular stomatitis virus
coxsackie A 9 virus = experiment: Antiviral activity against coxsackie A 9 virus; type: cell-based
adenovirus type 4 = experiment: Antiviral activity against adenovirus type 4; type: cell-based
Vaccinia Lister [6] = experiment: microbe, parasite or virus in culture; type: cell-based; conditions: Orthopoxvirus vaccinia
[7] = test system: Herpes simplex type 1 Kupka; experiment: Grading replication test on RH cell line, herpes simplex type 1 Kupka; type: cell-based, herpes simplex virus; conditions: RH cells
Vaccinia Lister [8] = experiment: microbe, parasite or virus in culture; type: cell-based; conditions: Orthopoxvirus vaccinia, in Gallus gallus, read-out: Plaque reduction in % of the virus control
Influenza A/WSN [9] = experiment: Plaque reduction test, influenza; type: cell-based; conditions: Influenza A virus, primary chicken embryo cells, read-out: Plaque reduction in % of the virus control
[10] = test system: Vesicular Stomatitis Indiana; experiment: microbe, parasite or virus in culture; type: cell-based; conditions: in Gallus gallus, read-out: Plaque reduction in % of the virus control
[11] = Orthopoxvirus vaccinia, in Gallus gallus, read-out: Inhibition of virus yield
[12] = Orthopoxvirus vaccinia, in Gallus gallus, read-out: Lowering the virus yield
[13] = Vesicular stomatitis virus, in Gallus gallus, read-out: Lowering the virus yield
[14] = read-out: Inhibition of virus yield
[15] = read-out: Lowering the virus yield

`O=c1[nH]c2ccccc2c(=O)n1CCS` [Example 1, 3-(2-mercapto-ethyl)-quinazoline-2,4(1H,3H)-dione] was tested, and the “number of IgG PFC relative to control” value [1] was 497%, the “number of IgM PFC relative to control” value [1] was 352% and the “number of IgG PFC in CY-suppressed animals” value ([2]; 6th and 7th days, p<0.05 and p<0.01) was “significantly increases the number of IgG PFC”. For the same compound, the “recovery of the immunological reactivity (IgM PFC)” value ([2]; CY-damaged animals, significant on the 5th day, p<0.05) was “measurable recovery of the immunological reactivity”, the “IgM PFC/10^6, CY + compound” value ([2]; day of testing +3, CY only control 37.5 ± 27.1) was 31.7 ± 26.6 PFC/10^6 and the “IgM PFC/10^6, CY + compound” value ([2]; day of testing +4, CY only control 49.7 ± 32.9) was 59.8 ± 26.6 PFC/10^6. The “IgM PFC/10^6, CY + compound” value ([2]; day of testing +5, CY only control 56.8 ± 27.6, p<0.05) was 125.2 ± 32.7 PFC/10^6, the “IgG PFC/10^6 spleen cells, CY + compound” value ([2]; day of testing +6, CY only control 26.7 ± 12.1, p<0.05) was 88.3 ± 24.8 PFC/10^6 spleen cells and the “IgM PFC/10^6, CY + compound” value ([2]; day of testing +6, CY only control 74.7 ± 73.4) was 47.8 ± 32.7 PFC/10^6. For the same compound, the “IgG PFC/10^6 spleen cells, CY + compound” value ([2]; day of testing +7, CY only control 46.7 ± 16.3, p<0.01) was 128.3 ± 28.6 PFC/10^6 spleen cells, the “IgG PFC/10^6 spleen cells, CY + compound” value ([2]; day of testing +8, CY only control 63.3 ± 24.2) was 58.3 ± 43.6 PFC/10^6 spleen cells and the inhibition at 31.25 µM (Vaccinia Lister [3]; [11]) was 99%. For the same compound, the inhibition at 62.5 µM (Vaccinia Lister [3]; [11]) was 99.7%, the inhibition at 125 µM (Vaccinia Lister [3]; [11]) was 100% and the inhibition at 250 µM (Vaccinia Lister [3]; [11]) was greater than 100%. The log reduction at 31.25 µM (Vaccinia Lister [3]; [12]) was 1, the log reduction at 62.5 µM (Vaccinia Lister [3]; [12]) was 2.5 and the log reduction at 125 µM (Vaccinia Lister [3]; [12]) was 4. It also gave a log reduction at 250 µM (Vaccinia Lister [3]; [12]) of 5.67, a therapeutic index (Vaccinia Lister [3]; ratio of maximum tolerated dose to minimum effective dose, vaccinia virus) of 8 and an inhibition at 31.25 µM (Influenza A/WSN [4]; 31.25 μmoles/l, read-out: Inhibition of virus yield) of 99.5%. It also gave a log reduction at 31.25 µM (Influenza A/WSN [4]; 31.25 μmoles/l, read-out: Lowering the virus yield) of 2.5, an inhibition at 62.5 µM (Influenza A/WSN [4]; 62.5 μmoles/l, read-out: Inhibition of virus yield) greater than 100% and a log reduction at 62.5 µM (Influenza A/WSN [4]; 62.5 μmoles/l, read-out: Lowering the virus yield) of 4.25. For the same compound, the inhibition at 125 µM (Influenza A/WSN [4]; 125 μmoles/l, read-out: Inhibition of virus yield) was greater than 100%, the log reduction at 125 µM (Influenza A/WSN [4]; 125 μmoles/l, read-out: Lowering the virus yield) was 4.67 and the inhibition at 250 µM (Influenza A/WSN [4]; 250 μmoles/l, read-out: Inhibition of virus yield) was greater than 100%. The log reduction at 250 µM (Influenza A/WSN [4]; 250 μmoles/l, read-out: Lowering the virus yield) was 6.23, the “Inhibition of virus yield” value (Herpes simplex type 1) was “n.s” and the log reduction at 125 µM (Herpes simplex type 1; Human alphaherpesvirus 1, in Gallus gallus, read-out: Lowering the virus yield) was 0.33. The inhibition at 250 µM (Herpes simplex type 1; Human alphaherpesvirus 1, 250 μmoles/l, chicken embryo cells, read-out: Inhibition of virus yield) was 99%, the log reduction at 250 µM (Herpes simplex type 1; Human alphaherpesvirus 1, 250 μmoles/l, chicken embryo cells, read-out: Lowering the virus yield) was 1 and the “Inhibition of virus yield” value ([5]; 125 μmoles/l, chicken embryo cells, n.s. = not significant) was “n.s”. The inhibition at 250 µM ([5]; Vesicular stomatitis virus, in Gallus gallus, read-out: Inhibition of virus yield) was 99.9%, the log reduction at 125 µM [5, 13] was 0.5 and the log reduction at 250 µM [5, 13] was 3. The antiviral activity (coxsackie A 9 virus) was “did not have antiviral activity”, the antiviral activity (adenovirus type 4) was “did not have antiviral activity” and the inhibition at 31.25 µM (Vaccinia Lister [6]; [14]) was greater than 100%. The inhibition at 62.5 µM (Vaccinia Lister [6]; [14]) was 100%, the inhibition at 125 µM (Vaccinia Lister [6]; [14]) was greater than 100% and the inhibition at 250 µM (Vaccinia Lister [6]; [14]) was greater than 100%. The log reduction at 31.25 µM (Vaccinia Lister [6]; [15]) was 3.5, the log reduction at 62.5 µM (Vaccinia Lister [6]; [15]) was 4 and the log reduction at 125 µM (Vaccinia Lister [6]; [15]) was greater than 4. The log reduction at 250 µM (Vaccinia Lister [6]; [15]) was greater than 4, the “Inhibition of virus yield” value ([7]; 62.5 μmoles/l, n.s. = not significant) was “n.s” and the log reduction at 62.5 µM ([7]; Human alphaherpesvirus 1, 62.5 μmoles/l, read-out: Lowering the virus yield) was 0.75. The inhibition at 125 µM ([7]; Human alphaherpesvirus 1, 125 μmoles/l, read-out: Inhibition of virus yield) was greater than 100%, the log reduction at 125 µM ([7]; Human alphaherpesvirus 1, 125 μmoles/l, read-out: Lowering the virus yield) was 5.5 and the inhibition at 250 µM ([7]; Human alphaherpesvirus 1, 250 μmoles/l, read-out: Inhibition of virus yield) was greater than 100%. The log reduction at 250 µM ([7]; Human alphaherpesvirus 1, 250 μmoles/l, read-out: Lowering the virus yield) was 6, the inhibition at 31.25 µM (Vaccinia Lister [8]) was 87% and the inhibition at 62.5 µM (Vaccinia Lister [8]) was 92%. For the same compound, the inhibition at 125 µM (Vaccinia Lister [8]) was 96%, the inhibition at 250 µM (Vaccinia Lister [8]) was 100% and the inhibition at 31.25 µM (Influenza A/WSN [9]; 31.25 μmoles/l) was 85%. It also gave an inhibition at 62.5 µM (Influenza A/WSN [9]; 62.5 μmoles/l) of 92%, an inhibition at 125 µM (Influenza A/WSN [9]; 125 μmoles/l) of 98% and an inhibition at 250 µM (Influenza A/WSN [9]; 250 μmoles/l) of 100%. The inhibition at 62.5 µM [10] was 0%, the inhibition at 125 µM [10] was 15% and the inhibition at 250 µM [10] was 45%.

From patent US5306721A (priority 1990, dated 1994)
